Test results from ChEMBL document CHEMBL1133330, “N-benzylpyroglutamyl-L-phenylalanine derivatives as VCAM/VLA-4 antagonists” (Bioorg Med Chem Lett, 2000).

Legend:
Integrin alpha-4/beta-1 [1] = molecular target: T1, Integrin alpha-4/beta-1 (Homo sapiens, UniProt P05556+P13612); experiment: Antagonistic activity against VLA-4 (derived from ramos cells) binding to recombinant human VCAM by ELISA assay; type: cell-based
Integrin alpha-4/beta-1 [2] = molecular target: T1, Integrin alpha-4/beta-1; experiment: Antagonistic activity against VLA-4 binding to recombinant human VCAM by ramos cell assay; type: cell-based

T1 sequence (P05556 whole entry): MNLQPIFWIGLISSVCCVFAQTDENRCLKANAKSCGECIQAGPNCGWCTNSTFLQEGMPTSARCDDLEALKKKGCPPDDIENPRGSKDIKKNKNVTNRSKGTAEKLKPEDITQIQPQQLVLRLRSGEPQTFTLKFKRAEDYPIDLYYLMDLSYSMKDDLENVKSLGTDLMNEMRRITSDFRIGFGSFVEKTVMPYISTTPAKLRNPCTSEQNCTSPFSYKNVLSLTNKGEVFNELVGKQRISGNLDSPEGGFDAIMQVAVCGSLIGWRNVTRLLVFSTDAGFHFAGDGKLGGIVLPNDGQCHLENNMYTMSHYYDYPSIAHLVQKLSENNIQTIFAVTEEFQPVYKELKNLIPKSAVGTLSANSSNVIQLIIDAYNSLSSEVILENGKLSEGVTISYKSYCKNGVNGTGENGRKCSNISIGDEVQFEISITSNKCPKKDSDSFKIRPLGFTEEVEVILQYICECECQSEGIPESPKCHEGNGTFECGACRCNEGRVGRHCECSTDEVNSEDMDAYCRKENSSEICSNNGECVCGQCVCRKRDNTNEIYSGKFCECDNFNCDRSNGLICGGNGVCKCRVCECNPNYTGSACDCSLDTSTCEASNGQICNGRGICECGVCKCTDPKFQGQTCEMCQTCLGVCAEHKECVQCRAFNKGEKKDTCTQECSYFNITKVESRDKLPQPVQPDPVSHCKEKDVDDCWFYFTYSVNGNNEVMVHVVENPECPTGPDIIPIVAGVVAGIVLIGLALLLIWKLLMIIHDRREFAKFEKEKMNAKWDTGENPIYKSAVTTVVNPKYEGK
T1 sequence (P13612 whole entry): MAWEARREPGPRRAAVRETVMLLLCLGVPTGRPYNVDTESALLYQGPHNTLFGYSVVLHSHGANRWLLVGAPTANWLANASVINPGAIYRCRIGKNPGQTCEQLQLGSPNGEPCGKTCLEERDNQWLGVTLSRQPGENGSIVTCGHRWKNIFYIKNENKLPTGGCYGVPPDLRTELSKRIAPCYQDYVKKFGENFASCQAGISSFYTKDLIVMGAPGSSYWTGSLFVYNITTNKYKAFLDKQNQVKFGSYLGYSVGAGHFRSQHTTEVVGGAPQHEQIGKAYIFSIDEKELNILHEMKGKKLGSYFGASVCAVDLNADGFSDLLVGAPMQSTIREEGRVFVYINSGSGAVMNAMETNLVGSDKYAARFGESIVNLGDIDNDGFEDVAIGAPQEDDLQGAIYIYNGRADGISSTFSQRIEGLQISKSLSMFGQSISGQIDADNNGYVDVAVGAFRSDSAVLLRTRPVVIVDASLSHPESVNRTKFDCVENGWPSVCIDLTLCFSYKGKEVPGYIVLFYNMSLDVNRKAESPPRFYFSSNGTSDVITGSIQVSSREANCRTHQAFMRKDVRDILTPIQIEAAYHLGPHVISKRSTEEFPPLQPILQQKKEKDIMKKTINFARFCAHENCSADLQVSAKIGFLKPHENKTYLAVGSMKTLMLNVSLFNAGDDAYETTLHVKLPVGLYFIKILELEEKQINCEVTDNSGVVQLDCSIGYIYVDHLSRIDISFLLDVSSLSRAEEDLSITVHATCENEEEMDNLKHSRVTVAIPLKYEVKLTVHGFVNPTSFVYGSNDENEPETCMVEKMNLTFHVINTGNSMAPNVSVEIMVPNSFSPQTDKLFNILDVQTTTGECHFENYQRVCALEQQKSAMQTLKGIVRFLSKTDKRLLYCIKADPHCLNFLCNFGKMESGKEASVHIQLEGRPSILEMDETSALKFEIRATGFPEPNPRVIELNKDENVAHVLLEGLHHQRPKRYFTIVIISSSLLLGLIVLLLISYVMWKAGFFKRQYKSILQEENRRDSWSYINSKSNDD

IC50 (Integrin alpha-4/beta-1 [1])	IC50 (Integrin alpha-4/beta-1 [2])	SMILES
1.4 nM	80 nM	O=C(Nc1ccc(C[C@H](NC(=O)C2CCC(=O)N2Cc2ccccc2)C(=O)O)cc1)c1ccnc2ccccc12 (stereo partly drawn)
90 nM	–	O=C(O)[C@H](Cc1ccc(/C=C/c2ccc([N+](=O)[O-])cc2)cc1)NC(=O)[C@@H]1CCC(=O)N1Cc1ccccc1
53 nM	–	O=C(O)[C@H](Cc1ccc(C#Cc2ccccc2)cc1)NC(=O)[C@@H]1CCC(=O)N1Cc1ccccc1
3.6 nM	260 nM	O=C(Nc1ccc(C[C@H](NC(=O)C2CCC(=O)N2Cc2ccccc2)C(=O)O)cc1)c1ccccn1 (stereo partly drawn)
0.75 nM	28 nM	O=C(Nc1ccc(C[C@H](NC(=O)C2CCC(=O)N2Cc2ccccc2)C(=O)O)cc1)c1ccc(F)cc1C(F)(F)F (stereo partly drawn)
8.2 nM	2100 nM	CC(=O)N[C@@H](Cc1ccc(O)cc1)C(=O)Nc1ccc(C[C@H](NC(=O)[C@@H]2CCC(=O)N2Cc2ccccc2)C(=O)O)cc1
2.2 nM	560 nM	O=C(Nc1ccc(C[C@H](NC(=O)[C@@H]2CCC(=O)N2Cc2ccccc2)C(=O)O)cc1)c1ccc([N+](=O)[O-])cc1
1000 nM	–	N#Cc1ccc(C[C@H](NC(=O)[C@@H]2CCC(=O)N2Cc2ccccc2)C(=O)O)cc1
1.6 nM	127 nM	O=C(Nc1ccc(C[C@H](NC(=O)C2CCC(=O)N2Cc2ccccc2)C(=O)O)cc1)c1cc(F)c(F)cc1F (stereo partly drawn)
53 nM	–	O=C(NCc1ccc(C[C@H](NC(=O)[C@@H]2CCC(=O)N2Cc2ccccc2)C(=O)O)cc1)c1cccnc1
2.4 nM	33 nM	Cc1ccc(C(=O)Nc2ccc(C[C@H](NC(=O)C3CCC(=O)N3Cc3ccccc3)C(=O)O)cc2)c(Cl)n1 (stereo partly drawn)
4 nM	1850 nM	O=C(Nc1ccc(C[C@H](NC(=O)C2CCC(=O)N2Cc2ccccc2)C(=O)O)cc1)c1cccnc1O (stereo partly drawn)
32 nM	–	O=C(O)[C@H](Cc1ccc(COc2ccc([N+](=O)[O-])cc2)cc1)NC(=O)[C@@H]1CCC(=O)N1Cc1ccccc1
0.82 nM	28 nM	COc1ccc([N+](=O)[O-])cc1C(=O)Nc1ccc(C[C@H](NC(=O)C2CCC(=O)N2Cc2ccccc2)C(=O)O)cc1 (stereo partly drawn)
220 nM	–	O=C(O)[C@H](Cc1ccc2c(c1)OCO2)NC(=O)[C@@H]1CCC(=O)N1Cc1ccccc1
20 nM	26000 nM	O=C(O)[C@H](Cc1ccc(NS(=O)(=O)c2cccc(C(F)(F)F)c2)cc1)NC(=O)[C@@H]1CCC(=O)N1Cc1ccccc1
1.1 nM	54 nM	O=C(Nc1ccc(C[C@H](NC(=O)C2CCC(=O)N2Cc2ccccc2)C(=O)O)cc1)c1cc(C(F)(F)F)ccc1C(F)(F)F (stereo partly drawn)
3.5 nM	1060 nM	NS(=O)(=O)c1ccc(C(=O)Nc2ccc(C[C@H](NC(=O)C3CCC(=O)N3Cc3ccccc3)C(=O)O)cc2)cc1 (stereo partly drawn)
0.88 nM	29 nM	COc1ccc(-c2cccnc2C(=O)Nc2ccc(C[C@H](NC(=O)C3CCC(=O)N3Cc3ccccc3)C(=O)O)cc2)cc1 (stereo partly drawn)
4.6 nM	260 nM	N#Cc1cccc(C(=O)Nc2ccc(C[C@H](NC(=O)C3CCC(=O)N3Cc3ccccc3)C(=O)O)cc2)c1 (stereo partly drawn)

IC50 (Integrin alpha-4/beta-1 [1])	IC50 (Integrin alpha-4/beta-1 [2])	SMILES
74 nM	–	[N-]=[N+]=NCc1ccc(C[C@H](NC(=O)[C@@H]2CCC(=O)N2Cc2ccccc2)C(=O)O)cc1
42500 nM	–	CC1CCC(C[C@H](NC(=O)[C@@H]2CCC(=O)N2Cc2ccccc2)C(=O)O)CC1 (stereo partly drawn)
59 nM	–	O=C(O)[C@H](Cc1ccc2ccccc2c1)NC(=O)[C@@H]1CCC(=O)N1Cc1ccccc1
17 nM	16000 nM	O=C(O)[C@H](Cc1ccc(NS(=O)(=O)c2ccc([N+](=O)[O-])cc2)cc1)NC(=O)[C@@H]1CCC(=O)N1Cc1ccccc1
152 nM	–	O=C(O)[C@H](Cc1ccc(CO)cc1)NC(=O)[C@@H]1CCC(=O)N1Cc1ccccc1
2.4 nM	102 nM	COc1ccc(C(=O)Nc2ccc(C[C@H](NC(=O)C3CCC(=O)N3Cc3ccccc3)C(=O)O)cc2)c(OC)n1 (stereo partly drawn)
230 nM	–	O=C(O)[C@H](Cc1cccc2ccccc12)NC(=O)[C@@H]1CCC(=O)N1Cc1ccccc1
0.37 nM	7 nM	O=C(Nc1ccc(C[C@H](NC(=O)C2CCC(=O)N2Cc2ccccc2)C(=O)O)cc1)c1ccc(Cl)cc1[N+](=O)[O-] (stereo partly drawn)
18 nM	–	O=C(O)[C@H](Cc1ccc(OCc2ccc([N+](=O)[O-])cc2)cc1)NC(=O)[C@@H]1CCC(=O)N1Cc1ccccc1
0.87 nM	33 nM	O=C(Nc1ccc(C[C@H](NC(=O)C2CCC(=O)N2Cc2ccccc2)C(=O)O)cc1)c1ccccc1[N+](=O)[O-] (stereo partly drawn)
5.3 nM	1900 nM	CC(=O)N[C@H](Cc1ccc(O)cc1)C(=O)Nc1ccc(C[C@H](NC(=O)[C@@H]2CCC(=O)N2Cc2ccccc2)C(=O)O)cc1
560 nM	–	O=C(O)[C@H](Cc1ccc([N+](=O)[O-])cc1)NC(=O)[C@@H]1CCC(=O)N1Cc1ccccc1
0.74 nM	77 nM	Cc1ccc([N+](=O)[O-])c(C(=O)Nc2ccc(C[C@H](NC(=O)C3CCC(=O)N3Cc3ccccc3)C(=O)O)cc2)c1 (stereo partly drawn)
0.26 nM	11 nM	Cc1ccc([N+](=O)[O-])cc1C(=O)Nc1ccc(C[C@H](NC(=O)C2CCC(=O)N2Cc2ccccc2)C(=O)O)cc1 (stereo partly drawn)
160 nM	–	COc1ccc(C[C@H](NC(=O)[C@@H]2CCC(=O)N2Cc2ccccc2)C(=O)O)cc1
460 nM	–	O=C(O)[C@H](Cc1ccccc1)NC(=O)[C@@H]1CCC(=O)N1Cc1ccccc1
6.3 nM	310 nM	O=C(Nc1ccc(C[C@H](NC(=O)[C@@H]2CCC(=O)N2Cc2ccccc2)C(=O)O)cc1)c1ccccc1
38 nM	–	O=C(O)[C@H](Cc1ccc(CCc2ccccc2)cc1)NC(=O)[C@@H]1CCC(=O)N1Cc1ccccc1
20 nM	–	CC(=O)N[C@@H](Cc1ccc(O)cc1)C(=O)NCc1ccc(C[C@H](NC(=O)[C@@H]2CCC(=O)N2Cc2ccccc2)C(=O)O)cc1
0.37 nM	12 nM	O=C(Nc1ccc(C[C@H](NC(=O)C2CCC(=O)N2Cc2ccccc2)C(=O)O)cc1)c1c(Cl)cccc1Cl (stereo partly drawn)
